Reference: ChEMBL document CHEMBL3045809, “Susceptibility of adult Trichogramma nubilale (Hymenoptera: Trichogrammatidae) to selected insecticides with different modes of action” (Crop Prot, 2012)

These compounds were tested on Trichogramma nubilale (assay: Contact toxicity against Trichogramma nubilale assessed as mortality after 24 hr by modified slight dry film method).
Type: functional

Going from `CC1(C)C(C=C(Cl)Cl)C1C(=O)OC(C#N)c1cccc(Oc2ccccc2)c1` (stereo not drawn) [ALPHA-CYPERMETHRIN] to `CC1(C)[C@H](/C=C(\Cl)C(F)(F)F)[C@@H]1C(=O)O[C@@H](C#N)c1cccc(Oc2ccccc2)c1` (relative stereo) [REL-LAMBDA CYHALOTHRIN], the LC50 falls from 19.48 mgAi/L to 13.69 mgAi/L.

First: CN1COCN(Cc2cnc(Cl)s2)/C1=N\[N+](=O)[O-] [THIAMETHOXAM]
Second: O=[N+]([O-])/N=C1\NCCN1Cc1cnc(Cl)s1 [IMIDACLOTHIZ]
The LC50 of the first is lower: 1.86 mgAi/L for the first, 75.27 mgAi/L for the second.

First: CCc1ccc(C(=O)NN(C(=O)c2cc(C)cc(C)c2)C(C)(C)C)cc1 [TEBUFENOZIDE]
Second: CNC(=O)Oc1cc(C)cc(C(C)C)c1 [PROMECARB]
The LC50 of the first is higher: 3452 mgAi/L for the first, 0.32 mgAi/L for the second.

Compared with `CCCSP(=O)(OCC)Oc1ccc(Br)cc1Cl` (stereo not given) [PROFENOFOS], `CCOP(=S)(OCC)Oc1nc(Cl)c(Cl)cc1Cl` [CHLORPYRIFOS] is lower in LC50: 0.18 mgAi/L for the first, 0.081 mgAi/L for the second.

First: N#Cc1nn(-c2c(Cl)cc(C(F)(F)F)cc2Cl)c(N)c1[S+]([O-])C(F)(F)F (stereo not given) [FIPRONIL]
Second: CC[S+]([O-])c1c(C#N)nn(-c2c(Cl)cc(C(F)(F)F)cc2Cl)c1N (stereo not given) [ETHIPROLE]
The LC50 of the first is lower: 0.29 mgAi/L for the first, 4.67 mgAi/L for the second.

Compared with `CNC(=O)Oc1cccc(C)c1` [METOLCARB], `CNC(=O)Oc1ccccc1C(C)C` [ISOPROCARB] is lower in LC50: 0.53 mgAi/L for the first, 0.12 mgAi/L for the second.

Going from `CCOP(=S)(OCC)O/N=C(\C#N)c1ccccc1` [PHOXIM] to `CCOP(=S)(OCC)Oc1ncn(-c2ccccc2)n1` [TRIAZOPHOS], the LC50 rises from 0.14 mgAi/L to 1.81 mgAi/L.

First: CC[C@H](C)[C@H]1O[C@]2(C=C[C@@H]1C)C[C@@H]1C[C@@H](C/C=C(\C)[C@@H](O[C@H]3C[C@H](OC)[C@@H](O[C@H]4C[C@H](OC)[C@@H](O)[C@H](C)O4)[C@H](C)O3)[C@@H](C)/C=C/C=C3\CO[C@@H]4[C@H](O)C(C)=C[C@@H](C(=O)O1)[C@]34O)O2.CO[C@H]1C[C@H](O[C@H]2[C@H](C)O[C@@H](O[C@@H]3/C(C)=C/C[C@@H]4C[C@@H](C[C@]5(C=C[C@H](C)[C@@H](C(C)C)O5)O4)OC(=O)[C@@H]4C=C(C)[C@@H](O)[C@H]5OC/C(=C\C=C\[C@@H]3C)[C@]54O)C[C@@H]2OC)O[C@@H](C)[C@@H]1O [ABAMECTIN]
Second: CC1(C)C(/C=C(\Cl)C(F)(F)F)C1C(=O)OC(C#N)c1cccc(Oc2ccccc2)c1 (stereo not given) [CYHALOTHRIN]
The LC50 of the first is lower: 3.57 mgAi/L for the first, 10.98 mgAi/L for the second.

Compared with `O=C(NC(=O)c1c(F)cccc1F)Nc1cc(Cl)c(Oc2ncc(C(F)(F)F)cc2Cl)c(Cl)c1` [CHLORFLUAZURON], `O=C(NC(=O)c1c(F)cccc1F)Nc1cc(Cl)c(OC(F)(F)C(F)F)c(Cl)c1` [HEXAFLUMURON] is higher in LC50: 7533 mgAi/L for the first, 9672 mgAi/L for the second.

Compared with `CCCCN(CCCC)SN(C)C(=O)Oc1cccc2c1OC(C)(C)C2` [CARBOSULFAN], `CC1(C)C(C(=O)OC(C#N)c2cccc(Oc3ccccc3)c2)C1(C)C` (stereo not given) [FENPROPATHRIN] is higher in LC50: 0.95 mgAi/L for the first, 150.3 mgAi/L for the second.

Compared with `CCN(Cc1ccc(Cl)nc1)/C(=C/[N+](=O)[O-])NC` [NITENPYRAM], `C/C(=N\C#N)N(C)Cc1ccc(Cl)nc1` [ACETAMIPRID] is higher in LC50: 4.37 mgAi/L for the first, 19.24 mgAi/L for the second.

Going from `N#C/N=C1\SCCN1Cc1ccc(Cl)nc1` [THIACLOPRID] to `O=[N+]([O-])/N=C1\NCCN1Cc1ccc(Cl)nc1` [IMIDACLOPRID], the LC50 rises from 56.73 mgAi/L to 311.9 mgAi/L.

Compared with `C=C(C)CNc1c([S+]([O-])C(F)(F)F)c(C#N)nn1-c1c(Cl)cc(C(F)(F)F)cc1Cl` (stereo not given) [BUTENE-FIPRONIL], `COP(=S)(OC)Oc1ccc([N+](=O)[O-])c(C)c1` [FENITROTHION] is higher in LC50: 0.0068 mgAi/L for the first, 2.1 mgAi/L for the second.

Going from `CC1(C)C(C=C(Cl)Cl)C1C(=O)OC(C#N)c1cccc(Oc2ccccc2)c1` (stereo not drawn) [ALPHA-CYPERMETHRIN] to `CC1(C)[C@H](/C=C(\Cl)C(F)(F)F)[C@@H]1C(=O)O[C@@H](C#N)c1cccc(Oc2ccccc2)c1` (relative stereo) [REL-LAMBDA CYHALOTHRIN], the LC95 falls from 176.8 mgAi/L to 127.6 mgAi/L.

Compared with `CN1COCN(Cc2cnc(Cl)s2)/C1=N\[N+](=O)[O-]` [THIAMETHOXAM], `O=[N+]([O-])/N=C1\NCCN1Cc1cnc(Cl)s1` [IMIDACLOTHIZ] is higher in LC95: 13.35 mgAi/L for the first, 636.5 mgAi/L for the second.

First: CCc1ccc(C(=O)NN(C(=O)c2cc(C)cc(C)c2)C(C)(C)C)cc1 [TEBUFENOZIDE]
Second: CNC(=O)Oc1cc(C)cc(C(C)C)c1 [PROMECARB]
The LC95 of the first is higher: 21616 mgAi/L for the first, 1.91 mgAi/L for the second.

Going from `CNC(=O)Oc1cccc2ccccc12` [CARBARIL] to `CNC(=O)Oc1ccccc1C(C)C` [ISOPROCARB], the LC95 falls from 5.71 mgAi/L to 0.95 mgAi/L.

First: CCCSP(=O)(OCC)Oc1ccc(Br)cc1Cl (stereo not given) [PROFENOFOS]
Second: CCOP(=S)(OCC)Oc1nc(Cl)c(Cl)cc1Cl [CHLORPYRIFOS]
The LC95 of the first is higher: 1.73 mgAi/L for the first, 0.45 mgAi/L for the second.

Going from `N#Cc1nn(-c2c(Cl)cc(C(F)(F)F)cc2Cl)c(N)c1[S+]([O-])C(F)(F)F` (stereo not given) [FIPRONIL] to `CC[S+]([O-])c1c(C#N)nn(-c2c(Cl)cc(C(F)(F)F)cc2Cl)c1N` (stereo not given) [ETHIPROLE], the LC95 rises from 1.82 mgAi/L to 21.35 mgAi/L.

Going from `CNC(=O)Oc1cccc(C)c1` [METOLCARB] to `COP(=S)(OC)Oc1ccc([N+](=O)[O-])c(C)c1` [FENITROTHION], the LC95 rises from 5.2 mgAi/L to 34.74 mgAi/L.

Compared with `CCOP(=S)(OCC)O/N=C(\C#N)c1ccccc1` [PHOXIM], `CCOP(=S)(OCC)Oc1ncn(-c2ccccc2)n1` [TRIAZOPHOS] is higher in LC95: 1.35 mgAi/L for the first, 21.65 mgAi/L for the second.

First: CC[C@H](C)[C@H]1O[C@]2(C=C[C@@H]1C)C[C@@H]1C[C@@H](C/C=C(\C)[C@@H](O[C@H]3C[C@H](OC)[C@@H](O[C@H]4C[C@H](OC)[C@@H](O)[C@H](C)O4)[C@H](C)O3)[C@@H](C)/C=C/C=C3\CO[C@@H]4[C@H](O)C(C)=C[C@@H](C(=O)O1)[C@]34O)O2.CO[C@H]1C[C@H](O[C@H]2[C@H](C)O[C@@H](O[C@@H]3/C(C)=C/C[C@@H]4C[C@@H](C[C@]5(C=C[C@H](C)[C@@H](C(C)C)O5)O4)OC(=O)[C@@H]4C=C(C)[C@@H](O)[C@H]5OC/C(=C\C=C\[C@@H]3C)[C@]54O)C[C@@H]2OC)O[C@@H](C)[C@@H]1O [ABAMECTIN]
Second: CC1(C)C(/C=C(\Cl)C(F)(F)F)C1C(=O)OC(C#N)c1cccc(Oc2ccccc2)c1 (stereo not given) [CYHALOTHRIN]
The LC95 of the first is lower: 25.42 mgAi/L for the first, 93.25 mgAi/L for the second.

Going from `O=C(NC(=O)c1c(F)cccc1F)Nc1cc(Cl)c(Oc2ncc(C(F)(F)F)cc2Cl)c(Cl)c1` [CHLORFLUAZURON] to `O=C(NC(=O)c1c(F)cccc1F)Nc1cc(Cl)c(OC(F)(F)C(F)F)c(Cl)c1` [HEXAFLUMURON], the LC95 falls from 111205 mgAi/L to 51197 mgAi/L.

Going from `CCCCN(CCCC)SN(C)C(=O)Oc1cccc2c1OC(C)(C)C2` [CARBOSULFAN] to `CC1(C)C(C(=O)OC(C#N)c2cccc(Oc3ccccc3)c2)C1(C)C` (stereo not given) [FENPROPATHRIN], the LC95 rises from 7.4 mgAi/L to 1327.5 mgAi/L.

Going from `CCN(Cc1ccc(Cl)nc1)/C(=C/[N+](=O)[O-])NC` [NITENPYRAM] to `C/C(=N\C#N)N(C)Cc1ccc(Cl)nc1` [ACETAMIPRID], the LC95 rises from 31.37 mgAi/L to 167.9 mgAi/L.

Compared with `N#C/N=C1\SCCN1Cc1ccc(Cl)nc1` [THIACLOPRID], `O=[N+]([O-])/N=C1\NCCN1Cc1ccc(Cl)nc1` [IMIDACLOPRID] is higher in LC95: 461.2 mgAi/L for the first, 2675 mgAi/L for the second.

With `C=C(C)CNc1c([S+]([O-])C(F)(F)F)c(C#N)nn1-c1c(Cl)cc(C(F)(F)F)cc1Cl` (stereo not given) [BUTENE-FIPRONIL] the LC95 was 0.0419 mgAi/L.

These compounds were tested on Trichogramma nubilale.

IVERMECTIN was tested, and the LC50 was 2.36 mgAi/L.

Compound IVERMECTIN has an LC95 of 15.2 mgAi/L.
